Measurements from patent publication US6399628B1, “N-(aryl/heteroaryl) amino acid esters, pharmaceutical compositions comprising same, and methods for inhibiting alpha- amyloid peptide release and/or its synthesis by use of such compounds” (Athena Neurosciences, Inc., priority 1996, dated 2002).

melting point: 81 to 83 °C
SMILES: CCOC(=O)C(CC)Nc1ccc2ccccc2c1 (stereo not shown) [Example 39, 2-[N-(naphth-2-yl)amino]butanoic acid ethyl ester]
